In patent publication US6576675B1, “Z-styryl sulfone anticancer agents” (Temple University - Of the Commonwealth System of Higher …, priority 1999, dated 2003):

Key:
Type in all cases: cell-based
[1] = test system: Breast cell lines: MCF-7, BT-20, 435; test: Viability assay (Trypan blue exclusion), breast tumor cell lines; details: 2.5 mM, 72 hours, read-out: % Death, tumor cell type Breast
Method: (§1) The effect of the Z-styryl sulfones on normal fibroblasts and on tumor cells of breast, prostate and ovarian origin was examined utilizing the following cell lines: breast tumor cell lines: MCF-7, BT-20 and 435; prostate tumor cell lines LnCaP and DU-145; and ovarian tumor cell lines OVCAR and SKOV3. NIH/3T3 and HFL cells, which are normal murine and human fibroblasts, respectively, were also tested. LnCap is an androgen-dependent prostate tumor cell line. MCF-7 is an estrogen-responsive breast tumor cell line, while BT-20 and 435 are estrogen-unresponsive breast tumor cell lines. MCF-7, BT-20 and 435 were grown in Dulbecco's modified Eagle's medium (DMEM) containing 10% fetal bovine serum supplemented with penicillin and streptomycin. LnCaP and Du145 were cultured in RPMI with 10% fetal bovine serum containing penicillin and streptomycin. NIH3T3 and HFL cells were grown in DMEM containing 10% calf serum supplemented with penicillin and streptomycin. All cell cultures were maintained at 37° C. in a humidified atmosphere of 5% CO2.
(§2) Cells were treated with test compound at 2.5 mM concentration and cell viability was determined after 72 hours by the Trypan blue exclusion method.
(§3) Activity for each compound is reported as a range of cell induced death (% Death) with the lowest activity in the range of 10-20% and the highest being above 75%.

[2] = test system: Prostate cell lines: LnCaP, DU-145; test: Viability assay (Trypan blue exclusion), prostate tumor cell lines; details: 2.5 mM, 72 hours, read-out: % Death, tumor cell type Prostate
Method: as §1, §2, §3

[3] = test system: Ovarian cell lines: OVCAR, SKOV3; test: Viability assay (Trypan blue exclusion), ovarian tumor cell lines; details: Homo sapiens, 2.5 mM, 72 hours, read-out: % Death, tumor cell type Ovarian
Method: as §1, §2, §3

[4] = test system: Lung cell lines: N417, H157; test: Viability assay (Trypan blue exclusion), lung tumor cell lines; details: 2.5 mM, 72 hours, read-out: % Death, tumor cell type Lung
Method: as §2, §3
(§4) The procedure of Example 22 was followed for certain of the (Z)-benzylsulfones, substituting the following cancer cell lines: lung, N417 and H157; renal, CAKI-1 and CAKI-2; glioma, U87 and SW1088.

[5] = test system: Renal cell lines: CAKI-1, CAKI-2; test: Viability assay (Trypan blue exclusion), renal tumor cell lines; details: 2.5 mM, 72 hours, read-out: % Death, tumor cell type Renal
Method: as §2, §3, §4

[6] = test system: Glioma cell lines: U87, SW1088; test: Viability assay (Trypan blue exclusion), glioma cell lines; details: Homo sapiens, 2.5 mM, 72 hours, read-out: % Death, tumor cell type Glioma
Method: as §2, §3, §4

Row | Compound | cytotoxicity at 2500 µM [1] [%] | cytotoxicity at 2500 µM [2] [%] | cytotoxicity at 2500 µM [3] [%] | cytotoxicity at 2500 µM [4] [%] | cytotoxicity at 2500 µM [5] [%] | cytotoxicity at 2500 µM [6] [%]
1 | O=S(=O)(/C=C\c1ccccc1)Cc1ccccc1 [Example 1, Z-styryl Benzylsulfone] | 10 to 20 | 10 to 20 | 10 to 20 |  |  | 
2 | O=S(=O)(/C=C\c1ccccc1)Cc1ccc(Cl)cc1 [Example 2, Z-styryl 4-Chlorobenzylsulfone] | 20 to 25 | 20 to 25 | 20 to 25 |  |  | 
3 | O=S(=O)(/C=C\c1ccccc1)Cc1ccccc1Cl [Example 3, Z-styryl 2-Chlorobenzylsulfone] | 20 to 25 | 20 to 25 | 20 to 25 |  |  | 
4 | O=S(=O)(/C=C\c1ccccc1)Cc1ccc(F)cc1 [Example 4, Z-styryl 4-Fluorobenzylsulfone] | 20 to 25 | 20 to 25 | 20 to 25 |  |  | 
5 | O=S(=O)(/C=C\c1ccc(Cl)cc1)Cc1ccccc1 [Example 5, Z-4-Chlorostyryl Benzylsulfone] | 20 to 25 | 20 to 25 | 20 to 25 | 20 to 25 | 20 to 25 | 20 to 25
6 | O=S(=O)(/C=C\c1ccc(Cl)cc1)Cc1ccc(Cl)cc1 [Example 6, Z-4-Chlorostyryl 4-Chlorobenzylsulfone] | 60 to 70 | 60 to 70 | 60 to 70 | 60 to 70 | 60 to 70 | 60 to 70
7 | O=S(=O)(/C=C\c1ccc(Cl)cc1)Cc1ccccc1Cl [Example 7, Z-4-Chlorostyryl 2-Chlorobenzylsulfone] | 20 to 25 | 20 to 25 | 20 to 25 | 20 to 25 | 20 to 25 | 20 to 25
8 | O=S(=O)(/C=C\c1ccc(Cl)cc1)Cc1ccc(F)cc1 [Example 8, Z-4-Chlorostyryl 4-Fluorobenzylsulfone] | > 75 | > 75 | > 75 | > 75 | > 75 | > 75
9 | O=S(=O)(/C=C\c1ccc(F)cc1)Cc1ccccc1 [Example 9, Z-4-Fluorostyryl Benzylsulfone] | 20 to 25 | 20 to 25 | 20 to 25 |  |  | 
10 | O=S(=O)(/C=C\c1ccc(F)cc1)Cc1ccc(Cl)cc1 [Example 10, Z-4-Fluorostyryl 4-Chlorobenzylsulfone] | 60 to 70 | 60 to 70 | 60 to 70 | 60 to 70 | 60 to 70 | 60 to 70
11 | O=S(=O)(/C=C\c1ccc(F)cc1)Cc1ccccc1Cl [Example 11, Z-4-Fluorostyryl 2-Chlorobenzylsulfone] | 20 to 25 | 20 to 25 | 20 to 25 | 20 to 25 | 20 to 25 | 20 to 25
12 | O=S(=O)(/C=C\c1ccc(F)cc1)Cc1ccc(F)cc1 [Example 12, Z-4-Fluorostyryl 4-Fluorobenzylsulfone] | 40 to 50 | 40 to 50 | 40 to 50 | 40 to 50 | 40 to 50 | 40 to 50
13 | O=S(=O)(/C=C\c1ccc(Br)cc1)Cc1ccccc1 [Example 13, Z-4-Bromostyryl Benzylsulfone] | 20 to 25 | 20 to 25 | 20 to 25 |  |  | 
14 | O=S(=O)(/C=C\c1ccc(Br)cc1)Cc1ccc(Cl)cc1 [Example 14, Z-4-Bromostyryl 4-Chlorobenzylsulfone] | > 75 | > 75 | > 75 | > 75 | > 75 | > 75
15 | O=S(=O)(/C=C\c1ccc(Br)cc1)Cc1ccccc1Cl [Example 15, Z-4-Bromostyryl 2-Chlorobenzylsulfone] | 20 to 25 | 20 to 25 | 20 to 25 | 20 to 25 | 20 to 25 | 20 to 25
16 | O=S(=O)(/C=C\c1ccc(Br)cc1)Cc1ccc(F)cc1 [Example 16, Z-4-Bromostyryl 4-Fluorobenzylsulfone] | 60 to 70 | 60 to 70 | 60 to 70 | 60 to 70 | 60 to 70 | 60 to 70
17 | Cc1ccc(/C=C\S(=O)(=O)Cc2ccccc2)cc1 [Example 17, Z-4-Methylstyryl Benzylsulfone] | 20 to 25 | 20 to 25 | 20 to 25 |  |  | 
18 | Cc1ccc(/C=C\S(=O)(=O)Cc2ccc(Cl)cc2)cc1 [Example 18, Z-4-Methylstyryl 4-Chlorobenzylsulfone] | 20 to 25 | 20 to 25 | 20 to 25 | 20 to 25 | 20 to 25 | 20 to 25
19 | Cc1ccc(/C=C\S(=O)(=O)Cc2ccccc2Cl)cc1 [Example 19, Z-4-Methylstyryl 2-Chlorobenzylsulfone] | 20 to 25 | 20 to 25 | 20 to 25 |  |  | 
20 | Cc1ccc(/C=C\S(=O)(=O)Cc2ccc(F)cc2)cc1 [Example 20, Z-4-Methylstyryl 4-Fluorobenzylsulfone] | 20 to 25 | 20 to 25 | 20 to 25 | 20 to 25 | 20 to 25 | 20 to 25
